In US7250397B2, “Antiarrhythmic peptides” (Zealand Pharma A/S, priority 2000, dated 2007):

Experiments:
[1] = test system: human osteoblastic cells; experiment: Intercellular calcium wave propagation in human osteoblasts; format: cell-based; settings: 10^−8 M; medium without glucose (1.4 cells before); after ATP desensitization
Method: (§1) Human osteblast cells (hOB): Cells were isolated from human bone marrow obtained by puncture of the posterior iliac spine of healthy volunteers (aged 20-36): 10-15 ml marrow material was collected in 15 ml PBS+Ca,Mg (Life Technologies, Cat.No. 14040) with 100 U/ml Heparin (Sigma, Cat.No. H-3149). The mononuclear fraction of the marrow was isolated on a Lymphoprep gradient (Nycomed Pharma, Cat.No. 1001967), by centrifugation at 2200 rpm for 30 min. After harvesting, the mononuclear fraction was washed once with culture medium and centrifuged at 1800 rpm for 10 min. Subsequently cells were counted and plated in culture medium at 8×10^6 cells/100 mm dish. hOB medium (all reagents obtained from Life Technologies): MEM w/o Phenol Red w/Glutamax (Cat.No. 041-93013) supplemented with 10% heat inactivated fetal calf serum (Cat.No. 10106) and 0.1% Penicillin/Streptomycin (Cat.No. 15140). Medium was changed the following day and the cells were cultured at 37° C. in 5%CO2 with medium change every 7 days. After 3-4 weeks of culture the cells had reached 70% confluence. The medium was then supplemented with 100 nM Dexamethasone (Sigma, Cat.No. D-4902) for 7 days. […]
Metabolic stress induced by hypoglycemia is also known to decrease gap junctional communication. […] After ATP desensitization as described above, one single cell was stimulated mechanically, and the number of cells in the wave was recorded. […]

[2] = test system: human osteoblast; experiment: Lucifer Yellow dye transfer in human osteoblasts; format: cell-based; settings: 10 minutes; after 48 hours hypoxia 3-6% O2 (7 cells before)
Method: as §1, with “days.” for “days. After 3-4 weeks of culture the cells had reached 70% confluence. The medium was then supplemented with 100 nM Dexamethasone (Sigma, Cat.No. D-4902) for 7 days.”
To assess the effect of the compound on direct cellular coupling, microinjection experiments were performed according to the method described above. […] After 30 seconds, the number of cells containing dye was assessed. […] Then cellular coupling was re-assessed by microinjecting LY, and at this point the dye was only passed to an average of 7 cells (n=10).

[3] = test system: ROS 17/2.8 cells; experiment: Lucifer Yellow dye transfer in ROS 17/2.8 cells; format: cell-based, rat; settings: after 48 hours in 3-6% O2 (9 cells before)
Method: ROS 17/2.8 cells: Cells were cultured in 100 mm dishes at 37° C. with 5% CO2 and medium change every 2-3 days. ROS medium (all reagents obtained from Life Technologies) MEM (Cat.No. 31095) supplemented with 10% heat-inactivated calf serum (Cat.No. 16170), 1% NEAA (Cat.No. 11140), 1% Sodium Pyruvate (Cat.No. 11360), 1% L-Glutamine (Cat.No. 25030) and 0.1% Penicillin/Streptomycin (Cat.No. 15140). For video imaging experiments, cells were plated on coverslips at 2-3×10^5 cells/coverslip and cultured for 2-3 days before use.
The cells cultured on coverslips were placed in the microscope as described above. Microinjections were performed using the Eppendorf 5171 micromanipulator and the Eppendorf Transjector 5346 system. A micropipette was loaded with a 10 mM Lucifer Yellow (LY) solution (Sigma, Cat.No. L-0259). […] The excitation light for LY was 430 nm, and images were acquired as described above.
Similar experiments were performed with ROS cells. Basic coupling under physiological conditions in ROS cells was 12 cells (n=19). After 48 hours incubation in 3-6% O2, a reduction in dye transfer was seen to 9 cells (n=27).

In the case of “Ac-D-Tyr-D-Pro-D-4Hyp-Gly-D-Ala-Gly-NH2 [Compound 2]”, the “average number of cells in the calcium wave” value [1] is reported as 2.9 cells, the “dye transfer, number of cells” value [2] is reported as 9 cells and the “average dye transfer, number of cells” value [3] is reported as 12 cells.
